Data reported in US20060083830A1, “Polylysine-containing food additive and acidic adjuvant” (priority 2004, published 2006).
Where “and” joins values, the source holds several entries; their conditions need not be identical. Equal values may be shown once.

What was measured:
[1] = system: Listeria monocytogenes; test: L. monocytogenes on cooked ground turkey balls blended with ε-polylysine, vacuum packaged, stored at 10° C., CFU determination; assay type: cell-based; details: for Log Reduction: vs control Group A
Method: Six groups of 20 g ground uncooked turkey balls were prepared, with 27 balls prepared per group. […] Groups B-F were blended with varying amounts of ε-polylysine (“ε-PL”). Final concentrations of ε-polylysine within the turkey balls were:
After preparation, all meatballs were placed on baking sheets and baked in a conventional oven at 350° F. for 20 minutes. After baking, the meatballs were packaged separately and stored at 4° C.
The mixture was further diluted 1:10,000 times with sterile saline to produce a suspension for use.
20 microliters of the Listeria monocytogenes suspension was inoculated onto the exterior of each turkey ball. Turkey balls were incubated at room temperature for 30 min post-inoculation to allow bacteria to attach. Turkey balls were individually vacuum packaged and stored at 10° C.
The microbiological assay was performed after 3 hours, 24 hours, 1 week, 2 weeks, 3 weeks, 4 weeks, 5 weeks, 7 weeks, and 8 weeks. After each designated time period had passed, three bags from each group of meat balls were unpacked, transferred to a stomacher bag along with 20 ml of sterile 0.1% peptone water. Each meatball was hand crushed and stomached at high speed for 2 minutes. […] The letter “{overscore (A)}” denotes average.

[2] = rats, two generations; Neda et al., 1999; cited from earlier work

poly(imino(2-amino-1-oxo-1,6-hexanediyl)) [ε-PL]
Log Reduction ([1]; 3000 ppm ε-PL, after 7 weeks): >7.34
CFU/g ([1]; 3000 ppm ε-PL, after 8 weeks): <2.00E+00 CFU/g
average Log Value ([1]; 3000 ppm ε-PL, after 8 weeks): <0.30
average of CFU/g ([1]; 3000 ppm ε-PL, after 8 weeks): <2.00E+00 CFU/g
Log Reduction ([1]; 3000 ppm ε-PL, after 8 weeks): >8.03
average Log Value ([1]; 3000 ppm ε-PL, after 3 hours): 1.51
average of CFU/g ([1]; 3000 ppm ε-PL, after 3 hours): 3.20E+01 CFU/g
Log Reduction ([1]; 3000 ppm ε-PL, after 3 hours): 1.28
CFU/g ([1]; 3000 ppm ε-PL, after 24 hours): 5.00E+01 CFU/g and 6.40E+01 CFU/g and 7.20E+01 CFU/g
average Log Value ([1]; 3000 ppm ε-PL, after 24 hours): 1.79
average of CFU/g ([1]; 3000 ppm ε-PL, after 24 hours): 6.20E+01 CFU/g
Log Reduction ([1]; 3000 ppm ε-PL, after 24 hours): >1.93
average Log Value ([1]; 4000 ppm ε-PL, after 1 week): <0.52
average of CFU/g ([1]; 4000 ppm ε-PL, after 1 week): <3.35E+00 CFU/g
Log Reduction ([1]; 4000 ppm ε-PL, after 1 week): >7.76
CFU/g ([1]; 4000 ppm ε-PL, after 2 weeks): <2.00E+00 CFU/g
average Log Value ([1]; 4000 ppm ε-PL, after 2 weeks): <0.30
average of CFU/g ([1]; 4000 ppm ε-PL, after 2 weeks): <2.00E+00 CFU/g
Log Reduction ([1]; 4000 ppm ε-PL, after 2 weeks): >7.29
CFU/g ([1]; 4000 ppm ε-PL, after 3 weeks): <2.00E+00 CFU/g
average Log Value ([1]; 4000 ppm ε-PL, after 3 weeks): <0.3
average of CFU/g ([1]; 4000 ppm ε-PL, after 3 weeks): <2.00E+00 CFU/g
Log Reduction ([1]; 4000 ppm ε-PL, after 3 weeks): >8.09
CFU/g ([1]; 4000 ppm ε-PL, after 4 weeks): 2.00E+00 CFU/g and <2.00E+00 CFU/g
average Log Value ([1]; 4000 ppm ε-PL, after 4 weeks): <0.30
average of CFU/g ([1]; 4000 ppm ε-PL, after 4 weeks): <2.00E+00 CFU/g
Log Reduction ([1]; 4000 ppm ε-PL, after 4 weeks): >8.17
CFU/g ([1]; 4000 ppm ε-PL, after 5 weeks): <2.00E+00 CFU/g
average Log Value ([1]; 4000 ppm ε-PL, after 5 weeks): <0.30
average of CFU/g ([1]; 4000 ppm ε-PL, after 5 weeks): <2.00E+00 CFU/g
Log Reduction ([1]; 4000 ppm ε-PL, after 5 weeks): >8.12
CFU/g ([1]; 4000 ppm ε-PL, after 7 weeks): <2.00E+00 CFU/g
average Log Value ([1]; 4000 ppm ε-PL, after 7 weeks): <0.30
average of CFU/g ([1]; 4000 ppm ε-PL, after 7 weeks): <2.00E+00 CFU/g
Log Reduction ([1]; 4000 ppm ε-PL, after 7 weeks): >8.12
CFU/g ([1]; 4000 ppm ε-PL, after 8 weeks): <2.00E+00 CFU/g
average Log Value ([1]; 4000 ppm ε-PL, after 8 weeks): <0.30
average of CFU/g ([1]; 4000 ppm ε-PL, after 8 weeks): <2.00E+00 CFU/g
Log Reduction ([1]; 4000 ppm ε-PL, after 8 weeks): >8.03
average Log Value ([1]; 4000 ppm ε-PL, after 3 hours): <1.17
average of CFU/g ([1]; 4000 ppm ε-PL, after 3 hours): <1.47E+01 CFU/g
Log Reduction ([1]; 4000 ppm ε-PL, after 3 hours): >1.62
average Log Value ([1]; 4000 ppm ε-PL, after 24 hours): 1.29
average of CFU/g ([1]; 4000 ppm ε-PL, after 24 hours): 1.93E+01 CFU/g
Log Reduction ([1]; 4000 ppm ε-PL, after 24 hours): >2.44
average Log Value ([1]; 5000 ppm ε-PL, after 1 week): 1.95
average of CFU/g ([1]; 5000 ppm ε-PL, after 1 week): 8.87E+01 CFU/g
Log Reduction ([1]; 5000 ppm ε-PL, after 1 week): 6.33
average Log Value ([1]; 5000 ppm ε-PL, after 2 weeks): <0.30
average of CFU/g ([1]; 5000 ppm ε-PL, after 2 weeks): <2.00E+00 CFU/g
Log Reduction ([1]; 5000 ppm ε-PL, after 2 weeks): >7.99
CFU/g ([1]; 5000 ppm ε-PL, after 3 weeks): <2.00E+00 CFU/g
average Log Value ([1]; 5000 ppm ε-PL, after 3 weeks): <0.30
average of CFU/g ([1]; 5000 ppm ε-PL, after 3 weeks): <2.00E+00 CFU/g
Log Reduction ([1]; 5000 ppm ε-PL, after 3 weeks): >8.09
average Log Value ([1]; 5000 ppm ε-PL, after 4 weeks): <0.30
average of CFU/g ([1]; 5000 ppm ε-PL, after 4 weeks): <2.00E+00 CFU/g
Log Reduction ([1]; 5000 ppm ε-PL, after 4 weeks): <8.17
CFU/g ([1]; 5000 ppm ε-PL, after 5 weeks): <2.00E+00 CFU/g
average Log Value ([1]; 5000 ppm ε-PL, after 5 weeks): <0.30
average of CFU/g ([1]; 5000 ppm ε-PL, after 5 weeks): <2.00E+00 CFU/g
Log Reduction ([1]; 5000 ppm ε-PL, after 5 weeks): >8.12
CFU/g ([1]; 5000 ppm ε-PL, after 7 weeks): <2.00E+00 CFU/g
average Log Value ([1]; 5000 ppm ε-PL, after 7 weeks): <0.30
average of CFU/g ([1]; 5000 ppm ε-PL, after 7 weeks): <2.00E+00 CFU/g
Log Reduction ([1]; 5000 ppm ε-PL, after 7 weeks): >8.12
CFU/g ([1]; 5000 ppm ε-PL, after 8 weeks): <2.00E+00 CFU/g
average Log Value ([1]; 5000 ppm ε-PL, after 8 weeks): <0.30
average of CFU/g ([1]; 5000 ppm ε-PL, after 8 weeks): <2.00E+00 CFU/g
Log Reduction ([1]; 5000 ppm ε-PL, after 8 weeks): >8.03
average Log Value ([1]; 5000 ppm ε-PL, after 3 hours): 0.60
average of CFU/g ([1]; 5000 ppm ε-PL, after 3 hours): 4.00E+00 CFU/g
Log Reduction ([1]; 5000 ppm ε-PL, after 3 hours): 2.18
average Log Value ([1]; 5000 ppm ε-PL, after 24 hours): 0.73
average of CFU/g ([1]; 5000 ppm ε-PL, after 24 hours): 5.33E+00 CFU/g
Log Reduction ([1]; 5000 ppm ε-PL, after 24 hours): >3.00
outgrowth of Listeria ([1]; final concentration of 3000 ppm in ground turkey, eight week period, 10° C.): completely inhibited the outgrowth of Listeria
safety as a food additive [2]: no adverse reproductive toxological effects
